Each structure is given as a SMILES string. Like-named read-outs stand apart in the source and are kept apart here.

The record followed here is patent USRE47689E1, “Compounds for treating spinal muscular atrophy” (PTC Therapeutics, Inc., priority 2011, dated 2019).

In data set [1] the test system is SMN2 minigene (full length SMN2 minigene mRNA containing SMN2 exon 7). The data set can be described thus: SMN2 minigene mRNA splicing RT-qPCR assay in cultured cells. It counts as cell-based, human. As to conditions: Homo sapiens, HEK293-H, read-out: EC1.5x for production of full length SMN2 mRNA. Put shortly:
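HEK293H cells stably carrying the SMN2-A minigene treated 24 h at 37° C with compound (DMSO, 200× stock), then lysed. Multiplex RT-qPCR (SMN primers 0.4 μM final; 40 cycles) measures full-length exon 7-containing minigene mRNA, normalized to GAPDH and to vehicle; EC1.5x derived and binned by stars.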

Data set [2] has as its system Smn protein. The data set can be described thus: Smn protein assay in cultured cells (SMN HTRF). It counts as cell-based, human. The note with it: 48 hours; for maximum fold (Fold) increase of Smn protein: SMA patient fibroblast cells, 7-point concentration data, fold increase relative to vehicle control (SMN HTRF); for EC1.5x (concentration giving 1.5-fold Smn protein increase): SMA Type 1 patient fibroblast cells (GM03813), 7-point concentration curve, SMN HTRF, concentration producing 1.5 times Smn protein vs DMSO vehicle control, read-out: EC1.5x for Smn protein expression. The method in brief: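 Lysates in RIPA with protease inhibitors are incubated overnight at room temperature with HTRF anti-SMN antibodies. EC1.5x is derived from fold increase in ΔF over vehicle.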
In general terms: In TR-FRET formats the signal depends on donor and acceptor labels being close together.

[3] abbreviates: HEK293H cells stably transfected with SMN2-A minigene, 24 hours, 7-point concentration curve, 1.5-fold relative to vehicle-treated cells.

On to `Cc1ccn2nc(-c3cc4ccc(N5CCNC(C)(C)C5)cc4oc3=O)cc2c1` [Compound 305, 7-(3,3-dimethylpiperazin-1-yl)-3-(5-methylpyrazolo[1,5-a]pyridin-2-yl)-2H-chromen-2-one], for which the melting point was 203 to 205 °C. Moreover, the EC (1.5-fold) in data set [1] (setting [3]) was 0.3 to 1 µM. Besides, the “maximum fold (Fold) increase of Smn protein” value (shortened to “maximum fold (Fold) increase”) in data set [2] was “** (fold increase between >1.2 and ≤1.35)”.
As for `CCN1CCC(c2ccc3cc(-c4cnc5nc(C)cn5c4)c(=O)oc3c2)CC1` [Compound 836, 7-(1-ethylpiperidin-4-yl)-3-(2-methylimidazo[1,2-a]pyrimidin-6-yl)-2H-chromen-2-one], the melting point is 288 to 290 °C. In addition, the EC (1.5-fold) in data set [1] (setting [3]) lay in the range of 0.3 to 1 µM. In addition, in data set [2], the EC1.5x (concentration giving 1.5-fold Smn protein increase) fell in the range of 300 to 1000 nM and the “maximum fold (Fold) increase” value is “***** (fold increase >1.65)”.
`Cc1ccc2oc(-c3cc4ccc(N5CCN6CCC[C@@H]6C5)cc4oc3=O)cc2n1` [Compound 721, 7-[(8aR)-hexahydropyrrolo[1,2-a]pyrazin-2(1H)-yl]-3-(5-methylfuro[3,2-b]pyridin-2-yl)-2H-chromen-2-one] returned a melting point of 195 to 198 °C. In addition, in data set [1] (setting [3]), the EC (1.5-fold) lay within 1 to 3 µM. Further, in data set [2], the “maximum fold (Fold) increase” value is listed as “* (maximum fold increase of ≤1.2)”.
For `Cc1cc(F)c2nc(-c3cc4ccc(N[C@H]5CCNC5)cc4oc3=O)cn2c1` [Compound 582, 3-(8-fluoro-6-methylimidazo[1,2-a]pyridin-2-yl)-7-[(3S)-pyrrolidin-3-ylamino]-2H-chromen-2-one], the melting point was in the range of 230 to 240 °C. Further, the EC (1.5-fold) in data set [1] (setting [3]) was in the range of 0.3 to 1 µM. For the same molecule, the “maximum fold (Fold) increase” value in data set [2] was “** (fold increase between >1.2 and ≤1.35)”.
The molecule `CCc1cc(C)cn2cc(-c3cc4ccc(N5C[C@@H](C)N[C@@H](C)C5)cc4oc3=O)nc12` [Compound 341, 7-[(3R,5S)-3,5-dimethylpiperazin-1-yl]-3-(8-ethyl-6-methylimidazo[1,2-a]pyridin-2-yl)-2H-chromen-2-one] came in with a melting point of 203 to 208 °C. Moreover, the EC (1.5-fold) in data set [1] (setting [3]) is 0.3 to 1 µM. Moreover, in data set [2], the “maximum fold (Fold) increase” value is listed as “* (maximum fold increase of ≤1.2)”.
In the same order, the values of `CN1CCN(c2ccc3cc(-c4cccnc4C(F)(F)F)c(=O)oc3c2)CC1` [Compound 125, 7-(4-methylpiperazin-1-yl)-3-[2-(trifluoromethyl)pyridin-3-yl]-2H-chromen-2-one] are 180 to 182 °C, 1 to 3 µM and “* (maximum fold increase of ≤1.2)”.
The molecule `Cc1cnc2nc(-c3cc4ccc(N5CCN[C@@H](C)C5)cc4oc3=O)cn2c1` [Compound 462, 3-(6-methylimidazo[1,2-a]pyrimidin-2-yl)-7-[(3S)-3-methylpiperazin-1-yl]-2H-chromen-2-one] gave a melting point of 254 to 256 °C. Further, the EC (1.5-fold) in data set [1] (setting [3]) was less than 0.1 µM. Moreover, in data set [2], the EC1.5x (concentration giving 1.5-fold Smn protein increase) was in the range of 1000 to 3000 nM; the “maximum fold (Fold) increase” value is “*** (fold increase between >1.35 and ≤1.5)”.
Molecule `O=c1oc2cc(N3CCNCC3)ccc2cc1-c1nc2cc(F)ccc2[nH]1` [Compound 395, 3-(5-fluoro-1H-benzimidazol-2-yl)-7-(piperazin-1-yl)-2H-chromen-2-one] yielded a melting point of 295 to 300 °C. In data set [1] (setting [3]), the EC (1.5-fold) lay in the range of 0.3 to 1 µM. The “maximum fold (Fold) increase” value in data set [2] is “* (maximum fold increase of ≤1.2)”.
The molecule `CC(C)NC(C)c1ccc2cc(-c3nc4ccccc4s3)c(=O)oc2c1` (centres unmarked) [Compound 144, 3-(1,3-benzothiazol-2-yl)-7-[1-(propan-2-ylamino)ethyl]-2H-chromen-2-one] gave a melting point of 135 to 137 °C. In data set [1] (setting [3]), the EC (1.5-fold) lay within 1 to 3 µM. Besides, the “maximum fold (Fold) increase” value in data set [2] is recorded as “* (maximum fold increase of ≤1.2)”.
`O=c1oc2cc(N3CCNCC3)ccc2cc1-c1cn2cc(F)cnc2n1` [Compound 502, 3-(6-fluoroimidazo[1,2-a]pyrimidin-2-yl)-7-(piperazin-1-yl)-2H-chromen-2-one]: the melting point is 250 to 261 °C. Further, the EC (1.5-fold) in data set [1] (setting [3]) lay within 1 to 3 µM. Besides, the “maximum fold (Fold) increase” value in data set [2] was “* (maximum fold increase of ≤1.2)”.
Consider `Cc1ccn2nc(-c3cc4ccc(N5CCNCC5)cc4oc3=O)cc2c1` [Compound 302, 3-(5-methylpyrazolo[1,5-a]pyridin-2-yl)-7-(piperazin-1-yl)-2H-chromen-2-one], for which the melting point was in the range of 228 to 231 °C. In addition, the EC (1.5-fold) in data set [1] (setting [3]) lay within 0.1 to 0.3 µM. In data set [2], the EC1.5x (concentration giving 1.5-fold Smn protein increase) was 300 to 1000 nM; the “maximum fold (Fold) increase” value is “*** (fold increase between >1.35 and ≤1.5)”.
The molecule `CCN1CCN(c2ccc3cc(-c4cn5c(C)csc5n4)c(=O)oc3c2)CC1` [Compound 178, 7-(4-ethylpiperazin-1-yl)-3-(3-methylimidazo[2,1-b][1,3]thiazol-6-yl)-2H-chromen-2-one] had a melting point of 178 to 180 °C. Besides, the EC (1.5-fold) in data set [1] (setting [3]) lay within 3 to 30 µM. In addition, the “maximum fold (Fold) increase” value in data set [2] is listed as “* (maximum fold increase of ≤1.2)”.
`O=c1oc2cc(N3CCNCC3)ccc2cc1-c1cccnc1C(F)(F)F` [Cpd 124, 7-(piperazin-1-yl)-3-[2-(trifluoromethyl)pyridin-3-yl]-2H-chromen-2-one] returned a melting point of 197 to 200 °C. In addition, the EC (1.5-fold) in data set [1] (setting [3]) fell in the range of 0.3 to 1 µM. Further, the “maximum fold (Fold) increase” value in data set [2] was “** (fold increase between >1.2 and ≤1.35)”.
In the case of `CCN1CCN(c2ccc3cc(-c4cn5cc(C)ncc5n4)c(=O)oc3c2)C[C@@H]1C` [Compound 627, 7-[(3S)-4-ethyl-3-methylpiperazin-1-yl]-3-(6-methylimidazo[1,2-a]pyrazin-2-yl)-2H-chromen-2-one], the melting point was 205 to 208 °C. In addition, the EC (1.5-fold) in data set [1] (setting [3]) is less than 0.1 µM. Also, in data set [2], the EC1.5x (concentration giving 1.5-fold Smn protein increase) was less than 300 nM and the “maximum fold (Fold) increase” value is recorded as “***** (fold increase >1.65)”.
As to `Cc1c[nH]nc1-c1cc2ccc(N3CCNCC3)cc2oc1=O` [Cpd 80, 3-(4-methyl-1H-pyrazol-3-yl)-7-(piperazin-1-yl)-2H-chromen-2-one], the melting point was 175 to 200 °C (dec.). The EC (1.5-fold) in data set [1] (24 h) fell in the range of 3 to 30 µM. Besides, in data set [2], the “maximum fold (Fold) increase” value was “** (fold increase between >1.2 and ≤1.35)”.
For `O=c1oc2cc(N3CCN(CCO)CC3)ccc2cc1-c1cc2ccccn2n1` [Compound 190, 7-[4-(2-hydroxyethyl)piperazin-1-yl]-3-(pyrazolo[1,5-a]pyridin-2-yl)-2H-chromen-2-one], the melting point fell in the range of 201 to 205 °C. Moreover, the EC (1.5-fold) in data set [1] (setting [3]) was in the range of 1 to 3 µM. Further, the “maximum fold (Fold) increase” value in data set [2] was “** (fold increase between >1.2 and ≤1.35)”.
For `CCN(CC)CCCCc1ccc2cc(-c3cn4cc(C)nc(C)c4n3)c(=O)oc2c1` [Compound 970, 7-[4-(diethylamino)butyl]-3-(6,8-dimethylimidazo[1,2-a]pyrazin-2-yl)-2H-chromen-2-one], the melting point lay within 212 to 216 °C. The EC (1.5-fold) in data set [1] (setting [3]) lay in the range of 0.3 to 1 µM. Further, in data set [2], the EC1.5x (concentration giving 1.5-fold Smn protein increase) fell in the range of 300 to 1000 nM and the “maximum fold (Fold) increase” value is recorded as “***** (fold increase >1.65)”.
In turn, `Cc1cn2cc(-c3cc4ccc(N5CC[C@@H](N(C)C)C5)cc4oc3=O)cc2cn1` [Compound 693, 7-[(3R)-3-(dimethylamino)pyrrolidin-1-yl]-3-(3-methylpyrrolo[1,2-a]pyrazin-7-yl)-2H-chromen-2-one] came in with a melting point of 206 to 208 °C. Moreover, the EC (1.5-fold) in data set [1] (setting [3]) is less than 0.1 µM. For the same molecule, in data set [2], the EC1.5x (concentration giving 1.5-fold Smn protein increase) was 300 to 1000 nM; the “maximum fold (Fold) increase” value was “**** (fold increase between >1.5 and ≤1.65)”.
`Cc1cn2cc(-c3cc4ccc(N5CCCN(C)CC5)cc4oc3=O)nc2cn1` [Compound 493, 7-(4-methyl-1,4-diazepan-1-yl)-3-(6-methylimidazo[1,2-a]pyrazin-2-yl)-2H-chromen-2-one] showed a melting point of 234 to 235 °C. In addition, the EC (1.5-fold) in data set [1] (setting [3]) was less than 0.1 µM. For the same molecule, in data set [2], the EC1.5x (concentration giving 1.5-fold Smn protein increase) was less than 300 nM and the “maximum fold (Fold) increase” value is given as “***** (fold increase >1.65)”.
For `Cc1cn2cc(-c3cc4ccc(C5CCN(C6CC6)CC5)cc4oc3=O)nc2c(C)n1` [Compound 854, 7-(1-cyclopropylpiperidin-4-yl)-3-(6,8-dimethylimidazo[1,2-a]pyrazin-2-yl)-2H-chromen-2-one] the same measures were 236 to 243 °C, less than 0.1 µM, less than 300 nM and “***** (fold increase >1.65)”.
In turn, `Cn1c(-c2cc3ccc(N4CCN(C(=O)OCc5ccccc5)CC4)cc3oc2=O)nc2ccccc21` [Compound 43, benzyl 4-[3-(1-methyl-1H-benzimidazol-2-yl)-2-oxo-2H-chromen-7-yl]piperazine-1-carboxylate] registered a melting point of 253 to 254 °C. The EC (1.5-fold) in data set [1] (setting [3]) is 3 to 30 µM. In addition, the “maximum fold (Fold) increase” value in data set [2] was “* (maximum fold increase of ≤1.2)”.

A word on the melting point: it is the temperature, or range, at which the solid turns liquid.
